Where two headings read alike, the source gives them in different places.
Tests used:
[1] = molecular target: Musca domestica AChE (MdAChE) (Musca domestica, UniProt Q7YWJ9); assay: AChE inhibition, Ellman assay; format: biochemical
Text: (§1) In vitro biochemical assays utilized five acetylcholinesterase (AChE) enzymes. Recombinant human AChE (hAChE) was purchased from a commercial source (lyophilized powder, Sigma C1682, St. Louis, MO, USA). Homogenates to prepare Anopheles gambiae AChE (AgAChE) were obtained from the wild type G3 strain and the resistant AKRON strain (BEI Resources; http://www.beiresources.org/). AKRON mosquitoes (from Benin and donated by M. Akogbeto) have both knockdown resistance (kdr) to pyrethroids (L1014F sodium channel mutation) and the G119S AChE mutation (ace-1R), which confers resistance to carbamates, [15]. Both strains were cultured in the Emerging Pathogens Institute, University of Florida, Gainesville, FL, USA from eggs provided by the Center for Disease Control, Atlanta, GA, USA. Homogenates were also used to prepare Aedes aegypti AChE (AeAChE) from mosquitoes provided by the CMAVE, USDA-ARS, Gainesville, FL, USA; Musca domestica AChE (MdAChE) from flies cultured in the Department of Entomology and Nematology, Medical Entomology Laboratory, University of Florida, Gainesville, FL, USA); and Drosophila melanogaster AChE (DmAChE) from flies (Oregon-R strain) cultured in the Emerging Pathogens Institute, University of Florida, Gainesville, FL, USA. Homogenate enzymes were prepared from groups of ten non-blood fed adult female mosquitoes, five whole bodied Drosophila, or three Musca heads homogenized in 1 mL of ice-cold sodium phosphate buffer (0.1 M sodium phosphate, pH 7.8) with an electric motor driven glass tissue homogenizer. The homogenate was centrifuged at 5000×g using a Sorvall Fresco refrigerated centrifuge at 4 °C for 5 minutes. The supernatant was used as the enzyme source, and all enzyme preparations contained 0.3% (v/v) triton X-100 and 1 mg/ml BSA. Prior to use, the recombinant human enzyme was diluted 500-fold into sodium phosphate buffer containing triton X-100 and 1 mg/ml BSA.
(§2) Inhibition of AChE was determined using the Ellman assay and was based on the method outlined in Carlier et al.. Briefly, enzyme solution (10 µL) was added to each well of a 96-well micro assay plate, along with 20 µL of inhibitor in DMSO/saline suspension, and 150 µL of sodium phosphate buffer. Final concentration of DMSO was 0.1% in all incubations. The plate was incubated at 25 °C for ten minutes. Ellman assay reagents, acetylthiocholine iodide (0.4 mM, final concentration) and 5,5′-dithiobis-(2-nitro)benzoic acid (0.3 mM, final concentration), were prepared fresh and 20 µL was added to the enzyme to initiate the reaction. Changes in absorbance were recorded by a DYNEX Triad spectrophotometer (DYNEX Technologies, Chantilly, VA, USA) at 405 nm. Enzyme concentrations used were within the linear range, therefore eliminating the need for protein quantification.

[2] = molecular target: T1, AKRON AgAChE (G119S AChE mutation) (Anopheles gambiae, UniProt Q869C3, G280S); assay: AChE inhibition, Ellman assay; format: biochemical
T1 construct: Homogenate enzymes were prepared from groups of ten non-blood fed adult female mosquitoes; from tissue; host or cells: whole adult female mosquitoes, AKRON strain, supernatant of homogenate
Text: as §1, §2

[3] = molecular target: T2, Recombinant human AChE (hAChE) (Homo sapiens, UniProt P22303); assay: AChE inhibition, Ellman assay; format: biochemical; conditions: mean, n = 3; read-out: IC50 (95% CI)
T2 construct: purchased Sigma C1682
Text: as §1, §2

[4] = molecular target: T3, Aedes aegypti AChE (AeAChE) (Aedes aegypti, UniProt Q6A2E2); assay: AChE inhibition, Ellman assay; format: biochemical
T3 construct: Homogenate enzymes were prepared from groups of ten non-blood fed adult female mosquitoes; from tissue; host or cells: whole adult female mosquitoes, supernatant of homogenate
Text: as §1
as §2, with “reaction.” for “reaction. Changes in absorbance were recorded by a DYNEX Triad spectrophotometer (DYNEX Technologies, Chantilly, VA, USA) at 405 nm. Enzyme concentrations used were within the linear range, therefore eliminating the need for protein quantification.”

[5] = molecular target: T4, Drosophila melanogaster AChE (DmAChE) (Drosophila melanogaster, UniProt P07140); assay: AChE inhibition, Ellman assay; format: biochemical
T4 construct: five whole bodied Drosophila, or three Musca heads homogenized; from tissue; host or cells: whole Drosophila (Oregon-R), supernatant of homogenate
Text: as §1
as §2, with “reaction.” for “reaction. Changes in absorbance were recorded by a DYNEX Triad spectrophotometer (DYNEX Technologies, Chantilly, VA, USA) at 405 nm. Enzyme concentrations used were within the linear range, therefore eliminating the need for protein quantification.”

[6] = molecular target: T5, Anopheles gambiae AChE (AgAChE), wild type G3 strain (Anopheles gambiae, UniProt Q869C3); assay: AChE inhibition, Ellman assay; format: biochemical
T5 construct: Homogenate enzymes were prepared from groups of ten non-blood fed adult female mosquitoes; from tissue; host or cells: whole adult female mosquitoes, G3 strain, supernatant of homogenate
Text: as §1
as §2, with “reaction.” for “reaction. Changes in absorbance were recorded by a DYNEX Triad spectrophotometer (DYNEX Technologies, Chantilly, VA, USA) at 405 nm. Enzyme concentrations used were within the linear range, therefore eliminating the need for protein quantification.”

[7] = system: octopamine receptors of Sf21 cells; assay: Calcium fluorescence assay in Sf21 cells; format: cell-based; conditions: 100 µM
Method: The Sf21 insect cell line was obtained from a commercial supplier (Invitrogen, Carlsbad, CA, USA) and maintained in log phase culture in Trichoplusia ni Medium-Formulation Hink (TNM-FH) from Sigma-Aldrich (St. Louis, MO, USA), supplemented with 10% fetal bovine serum and 100 U/ml penicillin and streptomycin (Sigma-Aldrich). Cells were cultured in a non-humidified environment and maintained at 27°C. Sf21 cells were passaged every 3–5 days according to manufacturer's instructions, and maintained for about 30 passes before being replaced by fresh cells.
Sf21 cells were plated into 96-well black-wall, clear bottom plates 24 h before calcium fluorescence assay. […] The octopamine receptor antagonist phentolamine (100 µM) was co-incubated with cells for 1 h before drug challenge. Phentolamine, octopamine, and DEET were dissolved in water, while propoxur was dissolved in 100% DMSO to make a stock solution, and in the assay, DMSO was kept to 0.1%. The experiment was repeated in triplicate with different plates of cells to obtain means and SEMs for each experimental condition.

[8] = mean, n = 3, read-out: IC50 (95% CI)

SMILES | IC50 ([1]; mean, n = 3; read-out: IC50 (95% CI)) [mM] | IC50 [2] [mM] | IC50 [3] [mM] | sensitivity of enzyme in words ([4]; concentrations up to 10 mM) | IC50 [4, 8] [µM] | IC50 [5, 8] [mM] | sensitivity of enzyme in words ([6]; concentrations up to 10 mM) | IC50 [6, 8] [µM] | increase in calcium fluorescence ([7]; over control cells) | fold more potent than the IC50 value of DEET to MdAChE ([1]; mean IC50) | IC50 ([1]; read-out: IC50 (95% CI); mean, n = 3) [mM] | IC50 [4] [µM] | IC50 [5] [mM] | IC50 [6] [µM] | effect on calcium fluorescence in words [7]
CCN(CC)C(=O)c1cccc(C)c1 [DEET, N, N-diethyl-meta-toluamide] | 6 | > 10 | 12 | completely insensitive | > 10000 | 10 | completely insensitive | > 10000 | ca. 30% |  |  |  |  |  | 
CNC(=O)Oc1ccccc1OC(C)C [propoxur] |  | > 0.1 | 0.00144 |  |  |  |  |  |  | 40,000 fold | 0.00013 | 0.37 | 8.4e-05 | 0.447 | no effect

Reference: paper PMC4125160, “Neurotoxicity and Mode of Action of N, N-Diethyl-Meta-Toluamide (DEET)” (PLoS ONE, 2014)
